Test results published in patent publication US20260224584A1 (priority 2023, published 2026).
Counter-ions that a name gives are not always drawn.

These compounds were tested on Human WB (90%) CD69 (assay: Human WB (90%) CD69). Settings: read-out: Human WB (90%) CD69 IC50 (nM); human whole blood (90%), CD69 readout.
Format: cell-based

Compound	IC50
CC(C)N1CCN(c2ccc(-c3cc(NCCN4CCOCC4)c4nc(C5CCC5)n(C)c4c3)cc2)CC1 [Example 32, 2-cyclobutyl-6-(4-(4-isopropylpiperazin-1-yl)phenyl)-1-methyl-N-(2-morpholinoethyl)-1H-benzo[d]imidazol-4-amine, 2 TFA]	79 nM
Cc1cc(C)nc(Nc2cc(-c3ccc(N4CCN(C(C)C)CC4)cc3)cc3c2nc(C2CC2)n3C)c1 [Example 33, 2-cyclopropyl-N-(4,6-dimethylpyridin-2-yl)-6-(4-(4-isopropylpiperazin-1-yl)phenyl)-1-methyl-1H-benzo[d]imidazol-4-amine, TFA]	245 nM
Cc1cc(C)nc(Nc2cc(-c3ccc(N4CCN(C(C)C)CC4)cc3)cc3c2nc(C2CCC2)n3C)c1 [Example 34, 2-cyclobutyl-N-(4,6-dimethylpyridin-2-yl)-6-(4-(4-isopropylpiperazin-1-yl)phenyl)-1-methyl-1H-benzo[d]imidazol-4-amine, TFA]	587 nM
CC(C)N1CCN(c2ccc(-c3cc(NCCN4CCC(F)(F)CC4)c4nc(-c5ccc(S(C)(=O)=O)cc5)n(C)c4c3)cc2)CC1 [Example 35, N-(2-(4,4-difluoropiperidin-1-yl)ethyl)-6-(4-(4-isopropylpiperazin-1-yl)phenyl)-1-methyl-2-(4-(methylsulfonyl)phenyl)-1H-benzo[d]imidazol-4-amine]	571 nM
CC(C)N1CCN(c2ccc(-c3cc(NCc4ccc(CN5CCOCC5)cc4)c4nc(-c5ccc(S(C)(=O)=O)cc5)n(C)c4c3)cc2)CC1 [Example 36, 6-(4-(4-isopropylpiperazin-1-yl)phenyl)-1-methyl-2-(4-(methylsulfonyl)phenyl)-N-(4-(morpholinomethyl)benzyl)-1H-benzo[d]imidazol-4-amine]	221 nM
CC(C)N1CCN(c2ccc(-c3cc(Nc4ccc(N5CCOCC5)nn4)c4nc(-c5ccc(S(C)(=O)=O)cc5)n(C)c4c3)cc2)CC1 [Example 37, 6-(4-(4-isopropylpiperazin-1-yl)phenyl)-1-methyl-2-(4-(methylsulfonyl)phenyl)-N-(6-morpholinopyridazin-3-yl)-1H-benzo[d]imidazol-4-amine, TFA]	167 nM
Cc1cc(C)nc(Nc2cc(-c3ccc(N4CCN(C5CCOCC5)CC4)cc3)cc3c2nc(-c2ccc(S(C)(=O)=O)cc2)n3C)c1 [Example 38, N-(4,6-dimethylpyridin-2-yl)-1-methyl-2-(4-(methylsulfonyl)phenyl)-6-(4-(4-(tetrahydro-2H-pyran-4-yl)piperazin-1-yl)phenyl)-1H-benzo[d]imidazol-4-amine]	899 nM
CC(C)N1CCN(c2ccc(-c3cc(NCCN4CCOCC4)c4ncn(C)c4c3)cc2)CC1 [Example 39, 6-(4-(4-isopropylpiperazin-1-yl)phenyl)-1-methyl-N-(2-morpholinoethyl)-1H-benzo[d]imidazol-4-amine, 2 TFA]	283 nM
Cc1cc(C)nc(Nc2cc(-c3ccc(N4CCN(C(C)C)CC4)cc3)cc3c2ncn3C)c1 [Example 40, N-(4,6-dimethylpyridin-2-yl)-6-(4-(4-isopropylpiperazin-1-yl)phenyl)-1-methyl-1H-benzo[d]imidazol-4-amine]	565 nM
Cc1cc(C)nc(Nc2cc(-c3ccc(N4CCN(C(C)C)CC4)cc3)cc3c2nc(C2CCS(=O)(=O)CC2)n3C)c1 [Example 41, 4-(4-((4,6-dimethylpyridin-2-yl)amino)-6-(4-(4-isopropylpiperazin-1-yl)phenyl)-1-methyl-1H-benzo[d]imidazol-2-yl)tetrahydro-2H-thiopyran 1,1-dioxide. TFA]	128 nM
CC(C)N1CCN(c2ccc(-c3cc(NCCN4CCOCC4)c4nc(C5CCS(=O)(=O)CC5)n(C)c4c3)cc2)CC1 [Example 42, 4-(6-(4-(4-isopropylpiperazin-1-yl)phenyl)-1-methyl-4-((2-morpholinoethyl)amino)-1H-benzo[d]imidazol-2-yl)tetrahydro-2H-thiopyran 1,1-dioxide]	925 nM
CC(C)N1CCN(c2ccc(-c3cc(NCc4ccc(CN5CCOCC5)cc4)c4nc(C5CCS(=O)(=O)CC5)n(C)c4c3)cc2)CC1 [Example 43, 4-(6-(4-(4-isopropylpiperazin-1-yl)phenyl)-1-methyl-4-((4-(morpholinomethyl)benzyl)amino)-1H-benzo[d]imidazol-2-yl)tetrahydro-2H-thiopyran 1,1-dioxide, 2 TFA]	396 nM
Cc1cc(C)nc(Nc2cc(-c3ccc(N4CCN(C(C)C)CC4)cc3)cc3c2nc(C2COC2)n3C)c1 [Example 44, N-(4,6-dimethylpyridin-2-yl)-6-(4-(4-isopropylpiperazin-1-yl)phenyl)-1-methyl-2-(oxetan-3-yl)-1H-benzo[d]imidazol-4-amine]	282 nM
CC(C)N1CCN(c2ccc(-c3cc(NCCN4CCOCC4)c4nc(C5COC5)n(C)c4c3)cc2)CC1 [Example 45, 6-(4-(4-isopropylpiperazin-1-yl)phenyl)-1-methyl-N-(2-morpholinoethyl)-2-(oxetan-3-yl)-1H-benzo[d]imidazol-4-amine]	473 nM
CC(C)N1CCN(c2ccc(-c3cc(NCc4ccc(CN5CCOCC5)cc4)c4nc(C5COC5)n(C)c4c3)cc2)CC1 [Example 46, 6-(4-(4-isopropylpiperazin-1-yl)phenyl)-1-methyl-N-(4-(morpholinomethyl)benzyl)-2-(oxetan-3-yl)-1H-benzo[d]imidazol-4-amine]	534 nM
CC(C)N1CCN(c2ccc(-c3cc(NCCN4CCOCC4)c4nc(C5CCOCC5)n(C)c4c3)cc2)CC1 [Example 47, 6-(4-(4-isopropylpiperazin-1-yl)phenyl)-1-methyl-N-(2-morpholinoethyl)-2-(tetrahydro-2H-pyran-4-yl)-1H-benzo[d]imidazol-4-amine, 2 TFA]	181 nM
Cc1cc(C)nc(Nc2cc(-c3ccc(N4CCN(C(C)C)CC4)cc3)cc3c2nc(C2CCOCC2)n3C)c1 [Example 48, N-(4,6-dimethylpyridin-2-yl)-6-(4-(4-isopropylpiperazin-1-yl)phenyl)-1-methyl-2-(tetrahydro-2H-pyran-4-yl)-1H-benzo[d]imidazol-4-amine, TFA]	109 nM
Cc1cc(C)nc(Nc2cc(-c3ccc(N4CCN(C(C)C)CC4)cc3)cc3c2nc(-c2cnoc2)n3C)c1 [Example 49, N-(4,6-dimethylpyridin-2-yl)-6-(4-(4-isopropylpiperazin-1-yl)phenyl)-2-(isoxazol-4-yl)-1-methyl-1H-benzo[d]imidazol-4-amine, TFA]	1090 nM
CC(C)N1CCN(c2ccc(-c3cc(NC4CCN(S(C)(=O)=O)CC4)c4nc(C5CCN(S(C)(=O)=O)CC5)n(C)c4c3)cc2)CC1 [Example 50, 6-(4-(4-isopropylpiperazin-1-yl)phenyl)-1-methyl-N,2-bis(1-(methylsulfonyl)piperidin-4-yl)-1H-benzo[d]imidazol-4-amine]	1530 nM
Cc1cc(C)nc(Nc2cc(-c3ccc(N4CCN(C(C)C)CC4)cc3)cc3c2nc(-c2cc[nH]c2)n3C)c1 [Example 51, N-(4,6-dimethylpyridin-2-yl)-6-(4-(4-isopropylpiperazin-1-yl)phenyl)-1-methyl-2-(1H-pyrrol-3-yl)-1H-benzo[d]imidazol-4-amine]	61 nM
Cc1cc(C)nc(Nc2cc(-c3ccc(N4CCN(C(C)C)CC4)cc3)cc3c2nc(-c2ccco2)n3C)c1 [Example 52, N-(4,6-dimethylpyridin-2-yl)-2-(furan-2-yl)-6-(4-(4-isopropylpiperazin-1-yl)phenyl)-1-methyl-1H-benzo[d]imidazol-4-amine, TFA]	62 nM
Cc1cc(C)nc(Nc2cc(-c3ccc(N4CCN(C(C)C)CC4)cc3)cc3c2nc(-c2cc[nH]n2)n3C)c1 [Example 53, N-(4,6-dimethylpyridin-2-yl)-6-(4-(4-isopropylpiperazin-1-yl)phenyl)-1-methyl-2-(1H-pyrazol-3-yl)-1H-benzo[d]imidazol-4-amine, TFA]	75 nM
CC(C)N1CCN(c2ccc(-c3cc(NC4CCN(S(C)(=O)=O)CC4)c4nc(N(C)C)n(C)c4c3)cc2)CC1 [Example 54, 6-(4-(4-isopropylpiperazin-1-yl)phenyl)-N2,N2,1-trimethyl-N4-(1-(methylsulfonyl)piperidin-4-yl)-1H-benzo[d]imidazole-2,4-diamine]	673 nM
CC(C)N1CCN(c2ccc(-c3cc(NCc4cccc(S(C)(=O)=O)c4)c4nc(-c5ccc(S(C)(=O)=O)cc5)n(C)c4c3)cc2)CC1 [Example 55, 6-(4-(4-isopropylpiperazin-1-yl)phenyl)-1-methyl-N-(3-(methylsulfonyl)benzyl)-2-(4-(methylsulfonyl)phenyl)-1H-benzo[d]imidazol-4-amine]	1130 nM
CC(C)N1CCN(c2ccc(-c3cc(NCc4ccc(S(C)(=O)=O)cc4)c4nc(-c5ccc(S(C)(=O)=O)cc5)n(C)c4c3)cc2)CC1 [Example 56, 6-(4-(4-isopropylpiperazin-1-yl)phenyl)-1-methyl-N-(4-(methylsulfonyl)benzyl)-2-(4-(methylsulfonyl)phenyl)-1H-benzo[d]imidazol-4-amine, TFA]	1640 nM
Cc1nc2c(NC3CCN(C4COC4)CC3)cc(-c3ccc(N4CCN(C(C)C)CC4)cc3)cc2n1C [Example 57, 6-(4-(4-isopropylpiperazin-1-yl)phenyl)-1,2-dimethyl-N-(1-(oxetan-3-yl)piperidin-4-yl)-1H-benzo[d]imidazol-4-amine]	188 nM
Cc1nc2c(N3CCN(C4COC4)CC3)cc(-c3ccc(N4CCN(C(C)C)CC4)cc3)cc2n1C [Example 58, 6-(4-(4-isopropylpiperazin-1-yl)phenyl)-1,2-dimethyl-4-(4-(oxetan-3-yl)piperazin-1-yl)-1H-benzo[d]imidazole]	860 nM
COc1ccc(-c2nc3c(N4CCN(C5COC5)CC4)cc(-c4ccc(N5CCN(C(C)C)CC5)cc4)cc3n2C)cc1OC [Example 59, 2-(3,4-dimethoxyphenyl)-6-(4-(4-isopropylpiperazin-1-yl)phenyl)-1-methyl-4-(4-(oxetan-3-yl)piperazin-1-yl)-1H-benzo[d]imidazole]	651 nM
Cc1nc2c(N3CCC(CNC4COC4)CC3)cc(-c3ccc(N4CCN(C(C)C)CC4)cc3)cc2n1C [Example 60, N-((1-(6-(4-(4-isopropylpiperazin-1-yl)phenyl)-1,2-dimethyl-1H-benzo[d]imidazol-4-yl)piperidin-4-yl)methyl)oxetan-3-amine]	535 nM
